Laboratory results reported in the NIST ThermoML archive (doi:10.1021/je700260f).

Conditions: 303.15 K, Liquid, Vibrating tube method

FC(C(F)(F)F)C(F)(F)F [1,1,1,2,3,3,3-heptafluoropropane]
Conditions | mass density [kg/m3]
1945 kPa | 1378.6
1968 kPa | 1378.8
1989 kPa | 1379
2014 kPa | 1379.2
2041 kPa | 1379.4
2063 kPa | 1379.7
2084 kPa | 1379.7
2105 kPa | 1379.8
2131 kPa | 1380.1
2283 kPa | 1381.5
2308 kPa | 1381.6
2332 kPa | 1381.8
2353 kPa | 1381.9
2378 kPa | 1382.2
2402 kPa | 1382.4
2418 kPa | 1382.4
2439 kPa | 1382.6
2461 kPa | 1382.7
2482 kPa | 1383
2510 kPa | 1383.4
2528 kPa | 1383.3
2552 kPa | 1383.4
2569 kPa | 1383.6
2591 kPa | 1383.8
2607 kPa | 1384
2632 kPa | 1384.1
2651 kPa | 1384.2
2673 kPa | 1384.4
2695 kPa | 1384.5
2718 kPa | 1384.7
2737 kPa | 1384.9
2762 kPa | 1385
3000 kPa | 1387
3022 kPa | 1387.1
3068 kPa | 1387.5
3088 kPa | 1387.7
3114 kPa | 1387.8
3136 kPa | 1387.9
3203 kPa | 1388.6
3222 kPa | 1388.8
3271 kPa | 1389
3293 kPa | 1389.2
3319 kPa | 1389.4
3357 kPa | 1389.6
3383 kPa | 1389.8
3402 kPa | 1390.2
3428 kPa | 1390.3
3448 kPa | 1390.3
3471 kPa | 1390.4
3498 kPa | 1390.7
3521 kPa | 1390.8
3541 kPa | 1391.2
3568 kPa | 1391.4
3587 kPa | 1391.3
3614 kPa | 1391.6
3637 kPa | 1391.7
3667 kPa | 1391.9
3690 kPa | 1392.1
3714 kPa | 1392.2
3735 kPa | 1392.5
3765 kPa | 1392.7
3789 kPa | 1393
3820 kPa | 1393
3844 kPa | 1393.3
3875 kPa | 1393.5
3902 kPa | 1393.7
3919 kPa | 1393.8
3940 kPa | 1394
3964 kPa | 1394.2
3991 kPa | 1394.5
4022 kPa | 1394.6
4050 kPa | 1394.7
4072 kPa | 1395
4099 kPa | 1395.1
4123 kPa | 1395.3
4147 kPa | 1395.5
4168 kPa | 1395.6
4189 kPa | 1395.8
4217 kPa | 1396
4249 kPa | 1396.3
4273 kPa | 1396.5
4290 kPa | 1396.4
4416 kPa | 1397.5
4444 kPa | 1397.6
4466 kPa | 1397.8
4497 kPa | 1397.9
4524 kPa | 1398
4552 kPa | 1398.4
4582 kPa | 1398.6
4611 kPa | 1398.9
4633 kPa | 1399.1
4659 kPa | 1399.4
4684 kPa | 1399.2
4710 kPa | 1399.5
4735 kPa | 1399.6
4765 kPa | 1399.9
4788 kPa | 1400
4811 kPa | 1400.2
4875 kPa | 1400.6
4904 kPa | 1400.9
4933 kPa | 1401.1
4958 kPa | 1401.2
4984 kPa | 1401.4
5013 kPa | 1401.5
5035 kPa | 1401.8
5060 kPa | 1401.7
5082 kPa | 1402.2
5116 kPa | 1402.4
5146 kPa | 1402.4
5172 kPa | 1402.6
5194 kPa | 1402.8
5221 kPa | 1403
5239 kPa | 1403
5261 kPa | 1403.2
5286 kPa | 1403.5
5308 kPa | 1403.6
5335 kPa | 1403.7
5356 kPa | 1403.9
5379 kPa | 1404
5405 kPa | 1404.1
5427 kPa | 1404.4
5457 kPa | 1404.7
5479 kPa | 1404.8
5509 kPa | 1405
5546 kPa | 1405.2
5568 kPa | 1405.3
5609 kPa | 1405.6
5635 kPa | 1405.8
5654 kPa | 1405.9
5688 kPa | 1406.2
5715 kPa | 1406.3
5738 kPa | 1406.4
5768 kPa | 1406.6
5795 kPa | 1406.8
5829 kPa | 1407.1
5856 kPa | 1407.3
5879 kPa | 1407.3
5906 kPa | 1407.7
5934 kPa | 1407.9
5957 kPa | 1408
5980 kPa | 1408.2
6003 kPa | 1408.2
6033 kPa | 1408.4
6056 kPa | 1408.6
6080 kPa | 1408.8
6108 kPa | 1408.9
6135 kPa | 1409
6167 kPa | 1409.2
6186 kPa | 1409.4
6217 kPa | 1409.6
6240 kPa | 1409.7
6272 kPa | 1409.9
6300 kPa | 1410.1
6332 kPa | 1410.3
6356 kPa | 1410.5
6382 kPa | 1410.7
6413 kPa | 1410.8
6441 kPa | 1411.1
6469 kPa | 1411.1
6493 kPa | 1411.3
6529 kPa | 1411.6
6556 kPa | 1411.7
6581 kPa | 1411.9
6617 kPa | 1412.2
6647 kPa | 1412.4
6675 kPa | 1412.6
6699 kPa | 1412.7
6720 kPa | 1412.9
6744 kPa | 1413.1
6772 kPa | 1413.3
6796 kPa | 1413.4
6820 kPa | 1413.5
6845 kPa | 1413.6
6881 kPa | 1414
6909 kPa | 1414.1
6937 kPa | 1414.3
6974 kPa | 1414.4
7006 kPa | 1414.7
7030 kPa | 1414.8
7056 kPa | 1415
7077 kPa | 1415.1
7110 kPa | 1415.2
7138 kPa | 1415.5
7171 kPa | 1415.7
7192 kPa | 1415.8
7216 kPa | 1416
7441 kPa | 1417.3
7474 kPa | 1417.5
7507 kPa | 1417.7
7536 kPa | 1417.9
7570 kPa | 1418.2
7599 kPa | 1418.3
7628 kPa | 1418.5
7669 kPa | 1418.7
7702 kPa | 1418.8
7727 kPa | 1419
7762 kPa | 1419.2
7795 kPa | 1419.4
7821 kPa | 1419.5
7850 kPa | 1419.8
7879 kPa | 1420
7912 kPa | 1420.3
7941 kPa | 1420.4
7970 kPa | 1420.6
8008 kPa | 1420.7
8033 kPa | 1421
